Measured values as given in patent US20210047304A1, “Bromodomain Inhibitors” (AbbVie Inc., priority 2016, published 2021).

Target: BRD4 (BDI_K57-E168) (Homo sapiens, UniProt O60885)
Assay: TR-FRET bromodomain binding assay, BRD4 BDI

Ki [µM]	SMILES
2.47	Cc1cc(F)cc(C)c1Oc1ccc(C(C)(C)O)cc1-c1cn(C)c(=O)cc1O[C@H]1CC[C@H](N2C(=O)NC3(CC3)C2=O)CC1 [Example 136, 6-[trans-4-({5-[2-(4-fluoro-2,6-dimethylphenoxy)-5-(2-hydroxypropan-2-yl)phenyl]-1-methyl-2-oxo-1,2-dihydropyridin-4-yl}oxy)cyclohexyl]-4,6-diazaspiro[2.4]heptane-5,7-dione]
10.4	CC(=O)NN[C@H]1CC[C@@H](Oc2cc(=O)n(C)cc2-c2cc(C(C)(C)O)ccc2Oc2c(C)cc(F)cc2C)CC1 [Example 99, N′-[cis-4-({5-[2-(4-fluoro-2,6-dimethylphenoxy)-5-(2-hydroxypropan-2-yl)phenyl]-1-methyl-2-oxo-1,2-dihydropyridin-4-yl}oxy)cyclohexyl]acetohydrazide]
0.783	Cc1cc(F)cc(C)c1Oc1ccc(C(C)(C)O)cc1-c1cn(C)c(=O)cc1O[C@H]1CC[C@H](N(C)C(=O)C2(C)CC2)CC1 [Example 58, N-[trans-4-({5-[2-(4-fluoro-2,6-dimethylphenoxy)-5-(2-hydroxypropan-2-yl)phenyl]-1-methyl-2-oxo-1,2-dihydropyridin-4-yl}oxy)cyclohexyl]-N,1-dimethylcyclopropane-1-carboxamide]
2.16	CC(=O)NN[C@H]1CC[C@H](Oc2cc(=O)n(C)cc2-c2cc(C(C)(C)O)ccc2Oc2c(C)cc(F)cc2C)CC1 [Example 105, N′-[trans-4-({5-[2-(4-fluoro-2,6-dimethylphenoxy)-5-(2-hydroxypropan-2-yl)phenyl]-1-methyl-2-oxo-1,2-dihydropyridin-4-yl}oxy)cyclohexyl]acetohydrazide]
1.81	Cc1cc(F)cc(C)c1Oc1ccc(C(C)(C)O)cc1-c1cn(C)c(=O)cc1O[C@H]1CC[C@H](N2CCNC2=O)CC1 [Example 35, 5-[2-(4-fluoro-2,6-dimethylphenoxy)-5-(2-hydroxypropan-2-yl)phenyl]-1-methyl-4-{[trans-4-(2-oxoimidazolidin-1-yl)cyclohexyl]oxy}pyridin-2(1H)-one]
3.84	Cc1cc(F)cc(C)c1Oc1ccc(C(C)(C)O)cc1-c1cn(C)c(=O)cc1O[C@H]1CC[C@H](N2C(=O)CCC2C)CC1 (relative stereo) [Example 42, 5-[2-(4-fluoro-2,6-dimethylphenoxy)-5-(2-hydroxypropan-2-yl)phenyl]-1-methyl-4-{[trans-4-(2-methyl-5-oxopyrrolidin-1-yl)cyclohexyl]oxy}pyridin-2(1H)-one]
> 13	Cc1cc(F)cc(C)c1Oc1ccc(C(C)(C)O)cc1-c1cn(C)c(=O)cc1O[C@H]1CC[C@H](N2NCCC2=O)CC1 [Example 109, 5-[2-(4-fluoro-2,6-dimethylphenoxy)-5-(2-hydroxypropan-2-yl)phenyl]-1-methyl-4-{[trans-4-(5-oxopyrazolidin-1-yl)cyclohexyl]oxy}pyridin-2(1H)-one]
5.96	CCNC(=O)[C@H]1CC[C@H](Oc2cc(=O)n(C)cc2-c2cc(C(C)(C)O)ccc2Oc2c(C)cc(F)cc2C)CC1 [Example 63, trans-N-ethyl-4-({5-[2-(4-fluoro-2,6-dimethylphenoxy)-5-(2-hydroxypropan-2-yl)phenyl]-1-methyl-2-oxo-1,2-dihydropyridin-4-yl}oxy)cyclohexane-1-carboxamide]

Further lines, the compound ahead of its results:

SMILES	Ki [µM]
CC(=O)NC12CCC(C(=O)N[C@H]3CC[C@H](Oc4cc(=O)n(C)cc4-c4cc(C(C)(C)O)ccc4Oc4c(C)cc(F)cc4C)CC3)(C1)C2 (relative stereo) [Example 137, 4-acetamido-N-[trans-4-({5-[2-(4-fluoro-2,6-dimethylphenoxy)-5-(2-hydroxypropan-2-yl)phenyl]-1-methyl-2-oxo-1,2-dihydropyridin-4-yl}oxy)cyclohexyl]bicyclo[2.1.1]hexane-1-carboxamide]	1.8
Cc1cc(F)cc(C)c1Oc1ccc(C(C)(C)O)cc1-c1cn(C)c(=O)cc1O[C@H]1CC[C@H](N2C(=O)CN(C)C2=O)CC1 [Example 78, 3-[trans-4-({5-[2-(4-fluoro-2,6-dimethylphenoxy)-5-(2-hydroxypropan-2-yl)phenyl]-1-methyl-2-oxo-1,2-dihydropyridin-4-yl}oxy)cyclohexyl]-1-methylimidazolidine-2,4-dione]	4.65
Cc1cc(F)cc(C)c1Oc1ccc(C(C)(C)O)cc1-c1cn(C)c(=O)cc1O[C@H]1CC[C@H](NC(=O)C23CC(NC(=O)OC(C)(C)C)(C2)C3)CC1 (relative stereo) [Example 72, tert-butyl (3-{[trans-4-({5-[2-(4-fluoro-2,6-dimethylphenoxy)-5-(2-hydroxypropan-2-yl)phenyl]-1-methyl-2-oxo-1,2-dihydropyridin-4-yl}oxy)cyclohexyl]carbamoyl}bicyclo[1.1.1]pentan-1-yl)carbamate]	> 13
Cc1cc(F)cc(C)c1Oc1ccc(C(C)(C)O)cc1-c1cn(C)c(=O)cc1O[C@H]1CC[C@H](n2nccc2O)CC1 [Example 114, 5-[2-(4-fluoro-2,6-dimethylphenoxy)-5-(2-hydroxypropan-2-yl)phenyl]-4-{[trans-4-(5-hydroxy-1H-pyrazol-1-yl)cyclohexyl]oxy}-1-methylpyridin-2(1H)-one]	4.66
Cc1cc(F)cc(C)c1Oc1ccc(C(C)(C)O)cc1-c1cn(C)c(=O)cc1O[C@H]1C[C@@H](C(=O)N2CCCC2)C1 [Example 96, 5-[2-(4-fluoro-2,6-dimethylphenoxy)-5-(2-hydroxypropan-2-yl)phenyl]-1-methyl-4-{[cis-3-(pyrrolidine-1-carbonyl)cyclobutyl]oxy}pyridin-2(1H)-one]	2.2
Cc1cc(F)cc(C)c1Oc1ccc(C(C)(C)O)cc1-c1cn(C)c(=O)cc1O[C@H]1CC[C@H](N2C(=O)CNC2=O)CC1 [Example 125, 3-[trans-4-({5-[2-(4-fluoro-2,6-dimethylphenoxy)-5-(2-hydroxypropan-2-yl)phenyl]-1-methyl-2-oxo-1,2-dihydropyridin-4-yl}oxy)cyclohexyl]imidazolidine-2,4-dione]	> 13
Cc1cc(F)cc(C)c1Oc1ccc(C(C)(C)O)cc1-c1cn(C)c(=O)cc1O[C@H]1CC[C@H](N2CCCCCC2=O)CC1 [Example 37, 1-[trans-4-({5-[2-(4-fluoro-2,6-dimethylphenoxy)-5-(2-hydroxypropan-2-yl)phenyl]-1-methyl-2-oxo-1,2-dihydropyridin-4-yl}oxy)cyclohexyl]azepan-2-one]	2.51
Cc1cc(F)cc(C)c1Oc1ccc(C(C)(C)O)cc1-c1cn(C)c(=O)cc1O[C@H]1CC[C@H](N2C(=O)N[C@H](C)C2=O)CC1 [Example 132, (5R)-3-[trans-4-({5-[2-(4-fluoro-2,6-dimethylphenoxy)-5-(2-hydroxypropan-2-yl)phenyl]-1-methyl-2-oxo-1,2-dihydropyridin-4-yl}oxy)cyclohexyl]-5-methylimidazolidine-2,4-dione]	4.21
Cc1cc(F)cc(C)c1Oc1ccc(C(C)(C)O)cc1-c1cn(C)c(=O)cc1O[C@H]1CC[C@H](N2C(=O)[C@H]3CCCN3C2=O)CC1 [Example 138, (7aR)-2-[trans-4-({5-[2-(4-fluoro-2,6-dimethylphenoxy)-5-(2-hydroxypropan-2-yl)phenyl]-1-methyl-2-oxo-1,2-dihydropyridin-4-yl}oxy)cyclohexyl]tetrahydro-1H-pyrrolo[1,2-c]imidazole-1,3(2H)-dione]	12.8
